The kinase profiling compilation of Christmann-Franck et al. (2016)

What was measured:
Assay in all cases: radiometric filter-binding kinase assay, Kinase HotSpot
Conditions in all cases: compound 0.5 µM; ATP 10 µM
ALK (human) = ALK (human) (UniProt Q9UM73)
CAMK4 (human) = CAMK4 (human) (UniProt Q16566)
CAMKK1 (human) = CAMKK1 (human) (UniProt Q8N5S9)
CDK1 CCNA2 (human) = CDK1 CCNA2 (human) (UniProt P06493+P20248)
CDK5 CDK5R1 p25 (human) = CDK5 CDK5R1 p25 (human) (UniProt Q00535+Q15078)
CHEK2 (human) = CHEK2 (human) (UniProt O96017)
CLK4 (human) = CLK4 (human) (UniProt Q9HAZ1)
CSNK1G2 (human) = CSNK1G2 (human) (UniProt P78368)
DAPK2 (human) = DAPK2 (human) (UniProt Q9UIK4)
DSTYK (human) = DSTYK (human) (UniProt Q6XUX3)
DYRK4 (human) = DYRK4 (human) (UniProt Q9NR20)
EPHA1 (human) = EPHA1 (human) (UniProt P21709)
FGFR1 (human) = FGFR1 (human) (UniProt P11362)
FGFR4 (human) = FGFR4 (human) (UniProt P22455)
FGR (human) = FGR (human) (UniProt P09769)
FLT3 (human) = FLT3 (human) (UniProt P36888)
FRK (human) = FRK (human) (UniProt P42685)
GRK5 (human) = GRK5 (human) (UniProt P34947)
GSK3A (human) = GSK3A (human) (UniProt P49840)
HIPK3 (human) = HIPK3 (human) (UniProt Q9H422)
LRRK2 (human) = LRRK2 (human) (UniProt Q5S007)
Chain of LRRK2 (human) (Q5S007 whole entry, looked up): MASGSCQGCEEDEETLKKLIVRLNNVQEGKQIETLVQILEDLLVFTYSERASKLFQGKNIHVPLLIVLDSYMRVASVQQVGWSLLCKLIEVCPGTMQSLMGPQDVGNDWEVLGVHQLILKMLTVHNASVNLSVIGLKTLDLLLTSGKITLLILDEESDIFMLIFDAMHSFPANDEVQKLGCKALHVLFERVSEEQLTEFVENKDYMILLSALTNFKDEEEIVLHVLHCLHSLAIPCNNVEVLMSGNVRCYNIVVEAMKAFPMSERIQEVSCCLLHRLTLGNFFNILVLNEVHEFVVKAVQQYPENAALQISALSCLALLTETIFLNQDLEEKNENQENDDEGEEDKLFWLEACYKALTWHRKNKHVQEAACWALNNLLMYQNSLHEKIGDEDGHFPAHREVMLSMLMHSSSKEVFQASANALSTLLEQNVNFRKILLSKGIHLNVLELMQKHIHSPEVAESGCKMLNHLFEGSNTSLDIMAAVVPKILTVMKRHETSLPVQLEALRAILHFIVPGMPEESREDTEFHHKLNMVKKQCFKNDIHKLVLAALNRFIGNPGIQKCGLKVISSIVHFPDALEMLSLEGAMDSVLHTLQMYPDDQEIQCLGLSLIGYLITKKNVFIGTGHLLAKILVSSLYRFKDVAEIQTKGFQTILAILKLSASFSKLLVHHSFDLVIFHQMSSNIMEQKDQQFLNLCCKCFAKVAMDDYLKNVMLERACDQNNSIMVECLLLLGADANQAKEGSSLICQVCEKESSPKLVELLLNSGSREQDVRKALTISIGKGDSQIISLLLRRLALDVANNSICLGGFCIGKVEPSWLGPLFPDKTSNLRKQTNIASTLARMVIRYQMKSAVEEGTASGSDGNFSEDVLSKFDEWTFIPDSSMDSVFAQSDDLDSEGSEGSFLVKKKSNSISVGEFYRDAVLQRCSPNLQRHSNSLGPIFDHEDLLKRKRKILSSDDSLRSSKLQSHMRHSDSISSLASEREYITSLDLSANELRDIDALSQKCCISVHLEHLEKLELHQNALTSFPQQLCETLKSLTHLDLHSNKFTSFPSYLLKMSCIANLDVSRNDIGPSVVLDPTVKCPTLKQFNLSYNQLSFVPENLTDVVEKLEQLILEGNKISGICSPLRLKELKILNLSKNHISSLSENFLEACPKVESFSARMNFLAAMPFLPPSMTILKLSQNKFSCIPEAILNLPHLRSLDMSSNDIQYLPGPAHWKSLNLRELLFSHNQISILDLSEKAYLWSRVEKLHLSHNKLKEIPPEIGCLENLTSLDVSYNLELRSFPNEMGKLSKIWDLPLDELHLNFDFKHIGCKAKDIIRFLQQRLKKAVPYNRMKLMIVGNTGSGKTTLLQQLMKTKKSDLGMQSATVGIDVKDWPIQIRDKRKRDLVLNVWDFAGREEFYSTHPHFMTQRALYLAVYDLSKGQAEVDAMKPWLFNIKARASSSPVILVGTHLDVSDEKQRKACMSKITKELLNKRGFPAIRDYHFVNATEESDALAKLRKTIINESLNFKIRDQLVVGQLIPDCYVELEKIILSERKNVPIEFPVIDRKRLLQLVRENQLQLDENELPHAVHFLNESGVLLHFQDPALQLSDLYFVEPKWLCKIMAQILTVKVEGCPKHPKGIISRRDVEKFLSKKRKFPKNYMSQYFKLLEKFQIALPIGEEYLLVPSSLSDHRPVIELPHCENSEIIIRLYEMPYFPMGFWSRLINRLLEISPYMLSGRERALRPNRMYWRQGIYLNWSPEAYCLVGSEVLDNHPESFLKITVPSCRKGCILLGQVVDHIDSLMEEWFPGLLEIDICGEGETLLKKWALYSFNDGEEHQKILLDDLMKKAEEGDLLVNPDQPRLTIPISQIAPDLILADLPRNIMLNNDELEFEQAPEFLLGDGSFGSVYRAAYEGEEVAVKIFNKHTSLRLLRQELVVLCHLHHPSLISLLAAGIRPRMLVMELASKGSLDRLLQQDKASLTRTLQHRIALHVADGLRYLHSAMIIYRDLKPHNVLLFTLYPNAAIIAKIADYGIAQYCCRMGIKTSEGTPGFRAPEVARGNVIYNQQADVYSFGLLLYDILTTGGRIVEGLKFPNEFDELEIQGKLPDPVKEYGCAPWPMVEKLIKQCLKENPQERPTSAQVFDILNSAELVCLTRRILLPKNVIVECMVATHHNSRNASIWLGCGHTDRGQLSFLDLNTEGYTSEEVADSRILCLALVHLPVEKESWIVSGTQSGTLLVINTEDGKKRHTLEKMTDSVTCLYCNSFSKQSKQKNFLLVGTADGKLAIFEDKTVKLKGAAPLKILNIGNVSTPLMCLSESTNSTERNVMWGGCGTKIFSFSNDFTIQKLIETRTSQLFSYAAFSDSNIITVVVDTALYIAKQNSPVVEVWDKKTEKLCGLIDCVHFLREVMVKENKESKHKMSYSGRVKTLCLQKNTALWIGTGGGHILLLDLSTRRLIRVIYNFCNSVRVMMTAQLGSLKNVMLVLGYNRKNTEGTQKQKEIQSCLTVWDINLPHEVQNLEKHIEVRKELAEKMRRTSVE

MAPK14 (human) = MAPK14 (human) (UniProt Q16539)
MAPK3 (human) = MAPK3 (human) (UniProt P27361)
MAPKAPK3 (human) = MAPKAPK3 (human) (UniProt Q16644)
MARK1 (human) = MARK1 (human) (UniProt Q9P0L2)
Chain of MARK1 (human) (Q9P0L2 whole entry, looked up): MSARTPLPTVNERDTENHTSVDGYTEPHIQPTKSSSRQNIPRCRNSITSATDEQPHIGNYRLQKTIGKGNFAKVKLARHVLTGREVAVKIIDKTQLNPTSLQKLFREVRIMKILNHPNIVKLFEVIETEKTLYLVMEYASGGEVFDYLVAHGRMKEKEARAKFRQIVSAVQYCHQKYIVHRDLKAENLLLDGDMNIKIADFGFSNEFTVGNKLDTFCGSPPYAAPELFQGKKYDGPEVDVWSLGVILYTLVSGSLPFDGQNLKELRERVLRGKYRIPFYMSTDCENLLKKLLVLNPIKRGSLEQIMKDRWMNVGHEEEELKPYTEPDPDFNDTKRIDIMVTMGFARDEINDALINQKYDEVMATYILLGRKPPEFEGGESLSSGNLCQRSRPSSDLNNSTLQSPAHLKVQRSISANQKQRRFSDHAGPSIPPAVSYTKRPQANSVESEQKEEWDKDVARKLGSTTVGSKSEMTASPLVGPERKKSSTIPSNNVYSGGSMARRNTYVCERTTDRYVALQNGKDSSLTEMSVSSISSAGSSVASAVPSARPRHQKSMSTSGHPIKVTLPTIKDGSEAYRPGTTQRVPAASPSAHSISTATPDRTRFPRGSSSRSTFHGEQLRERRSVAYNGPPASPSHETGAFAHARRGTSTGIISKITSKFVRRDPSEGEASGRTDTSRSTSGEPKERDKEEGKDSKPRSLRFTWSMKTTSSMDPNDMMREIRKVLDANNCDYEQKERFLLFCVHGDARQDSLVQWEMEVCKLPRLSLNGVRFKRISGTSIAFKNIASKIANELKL

MELK (human) = MELK (human) (UniProt Q14680)
MYLK2 (human) = MYLK2 (human) (UniProt Q9H1R3)
Chain of MYLK2 (human) (Q9H1R3 whole entry, looked up): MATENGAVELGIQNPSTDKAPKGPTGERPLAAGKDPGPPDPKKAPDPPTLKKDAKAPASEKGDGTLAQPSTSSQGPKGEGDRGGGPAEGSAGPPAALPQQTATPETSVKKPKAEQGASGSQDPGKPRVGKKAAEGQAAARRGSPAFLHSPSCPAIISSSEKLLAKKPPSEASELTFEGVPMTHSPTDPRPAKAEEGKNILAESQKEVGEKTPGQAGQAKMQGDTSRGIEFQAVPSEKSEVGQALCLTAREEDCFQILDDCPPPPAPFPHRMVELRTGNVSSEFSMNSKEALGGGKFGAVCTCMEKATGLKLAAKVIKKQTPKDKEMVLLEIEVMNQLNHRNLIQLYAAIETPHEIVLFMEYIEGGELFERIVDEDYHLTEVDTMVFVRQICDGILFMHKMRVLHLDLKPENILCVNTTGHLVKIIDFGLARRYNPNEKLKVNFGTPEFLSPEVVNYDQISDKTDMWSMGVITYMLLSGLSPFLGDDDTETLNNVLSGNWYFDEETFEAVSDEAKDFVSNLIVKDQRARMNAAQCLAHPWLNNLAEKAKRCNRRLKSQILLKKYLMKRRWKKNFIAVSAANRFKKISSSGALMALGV

NEK1 (human) = NEK1 (human) (UniProt Q96PY6)
NTRK2 (human) = NTRK2 (human) (UniProt Q16620)
PAK2 (human) = PAK2 (human) (UniProt Q13177)
PASK (human) = PASK (human) (UniProt Q96RG2)
PKN2 (human) = PKN2 (human) (UniProt Q16513)
PNCK (human) = PNCK (human) (UniProt Q6P2M8)
Chain of PNCK (human) (Q6P2M8 whole entry, looked up): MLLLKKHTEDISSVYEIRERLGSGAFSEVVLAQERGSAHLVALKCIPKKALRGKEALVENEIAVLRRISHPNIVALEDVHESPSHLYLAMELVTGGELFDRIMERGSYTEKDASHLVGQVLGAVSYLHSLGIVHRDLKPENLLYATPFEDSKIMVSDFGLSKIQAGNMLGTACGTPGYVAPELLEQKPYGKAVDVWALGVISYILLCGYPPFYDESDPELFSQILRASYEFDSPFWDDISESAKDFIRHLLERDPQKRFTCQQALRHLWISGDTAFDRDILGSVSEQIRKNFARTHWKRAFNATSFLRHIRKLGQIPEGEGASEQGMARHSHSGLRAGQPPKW

PRKACA (human) = PRKACA (human) (UniProt P17612)
PRKCE (human) = PRKCE (human) (UniProt Q02156)
Chain of PRKCE (human) (Q02156 whole entry, looked up): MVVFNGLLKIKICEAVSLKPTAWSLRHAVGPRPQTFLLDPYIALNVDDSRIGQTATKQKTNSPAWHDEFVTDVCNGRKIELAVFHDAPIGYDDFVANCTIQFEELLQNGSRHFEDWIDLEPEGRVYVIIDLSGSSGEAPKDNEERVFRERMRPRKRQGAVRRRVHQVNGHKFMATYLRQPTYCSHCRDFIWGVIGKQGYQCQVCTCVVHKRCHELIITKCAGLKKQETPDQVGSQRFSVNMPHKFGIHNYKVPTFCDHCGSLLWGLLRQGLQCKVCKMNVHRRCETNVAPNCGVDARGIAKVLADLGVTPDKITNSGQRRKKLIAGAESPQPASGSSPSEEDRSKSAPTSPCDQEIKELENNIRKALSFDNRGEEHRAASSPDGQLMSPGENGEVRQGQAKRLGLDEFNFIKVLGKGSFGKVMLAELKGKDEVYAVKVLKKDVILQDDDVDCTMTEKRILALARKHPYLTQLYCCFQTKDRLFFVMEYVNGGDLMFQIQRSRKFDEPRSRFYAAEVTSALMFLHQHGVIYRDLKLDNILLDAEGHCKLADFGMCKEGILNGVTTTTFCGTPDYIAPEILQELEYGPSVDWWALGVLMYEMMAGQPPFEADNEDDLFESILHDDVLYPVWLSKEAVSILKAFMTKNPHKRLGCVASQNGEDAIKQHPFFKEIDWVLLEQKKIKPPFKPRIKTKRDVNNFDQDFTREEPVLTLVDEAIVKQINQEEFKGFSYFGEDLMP

PRKCH (human) = PRKCH (human) (UniProt P24723)
PRKCI (human) = PRKCI (human) (UniProt P41743)
PRKX (human) = PRKX (human) (UniProt P51817)
RPS6KA2 KD1 KD2 (human) = RPS6KA2 KD1 KD2 (human) (UniProt Q15349)
SGK2 (human) = SGK2 (human) (UniProt Q9HBY8)
TAOK3 (human) = TAOK3 (human) (UniProt Q9H2K8)
WNK3 (human) = WNK3 (human) (UniProt Q9BYP7)

Question: For `O=C1Nc2cc(Br)ccc2/C1=C1/Nc2ccccc2/C1=N\O`, which residual activity (ALK (human)) is on record?
Answer: 88.5%

Question: And the residual activity (CAMK4 (human))?
Answer: 96.3%

Question: And the residual activity (CAMKK1 (human))?
Answer: 50.5%

Question: What about the residual activity (CDK1 CCNA2 (human)) of the same molecule?
Answer: 59.7%

Question: What about the residual activity (CDK5 CDK5R1 p25 (human)) of the same molecule?
Answer: 20.4%

Question: And the residual activity (CHEK2 (human))?
Answer: 48.3%

Question: What about the residual activity (CLK4 (human)) of the same molecule?
Answer: 97%

Question: What about the residual activity (CSNK1G2 (human)) of the same molecule?
Answer: 105%

Question: And the residual activity (DAPK2 (human))?
Answer: 91%

Question: And the residual activity (DSTYK (human))?
Answer: 102%

Question: What about the residual activity (DYRK4 (human)) of the same molecule?
Answer: 99.4%

Question: And the residual activity (EPHA1 (human))?
Answer: 98.5%

Question: And the residual activity (FGFR1 (human))?
Answer: 45.1%

Question: And the residual activity (FGFR4 (human))?
Answer: 79.6%

Question: What about the residual activity (FGR (human)) of the same molecule?
Answer: 2.99%

Question: And the residual activity (FLT3 (human))?
Answer: 4.02%

Question: And the residual activity (FRK (human))?
Answer: 23.2%

Question: And the residual activity (GRK5 (human))?
Answer: 125%

Question: And the residual activity (GSK3A (human))?
Answer: 3.6%

Question: What about the residual activity (HIPK3 (human)) of the same molecule?
Answer: 64.8%

Question: And the residual activity (LRRK2 (human))?
Answer: 95.3%

Question: And the residual activity (MAPK14 (human))?
Answer: 105%

Question: And the residual activity (MAPK3 (human))?
Answer: 83.3%

Question: What about the residual activity (MAPKAPK3 (human)) of the same molecule?
Answer: 96.1%

Question: What about the residual activity (MARK1 (human)) of the same molecule?
Answer: 64.2%

Question: And the residual activity (MELK (human))?
Answer: 43.5%

Question: And the residual activity (MYLK2 (human))?
Answer: 17.6%

Question: And the residual activity (NEK1 (human))?
Answer: 93.8%

Question: What about the residual activity (NTRK2 (human)) of the same molecule?
Answer: 10.3%

Question: And the residual activity (PAK2 (human))?
Answer: 90.9%

Question: And the residual activity (PASK (human))?
Answer: 97.9%

Question: What about the residual activity (PKN2 (human)) of the same molecule?
Answer: 85.6%

Question: What about the residual activity (PNCK (human)) of the same molecule?
Answer: 105%

Question: And the residual activity (PRKACA (human))?
Answer: 106%

Question: What about the residual activity (PRKCE (human)) of the same molecule?
Answer: 92.4%

Question: What about the residual activity (PRKCH (human)) of the same molecule?
Answer: 78.6%

Question: And the residual activity (PRKCI (human))?
Answer: 97.3%

Question: What about the residual activity (PRKX (human)) of the same molecule?
Answer: 92.1%

Question: And the residual activity (RPS6KA2 KD1 KD2 (human))?
Answer: 33.7%

Question: What about the residual activity (SGK2 (human)) of the same molecule?
Answer: 73%

Question: And the residual activity (TAOK3 (human))?
Answer: 56.9%

Question: And the residual activity (WNK3 (human))?
Answer: 93.8%

Question: What does the source list for `COc1cc2nccc(Oc3ccc(NC(=S)NC(=O)c4ccccc4C)cc3)c2cc1OC`?
Answer: residual activity (ALK (human)): 80.8%; residual activity (CAMK4 (human)): 103%; residual activity (CAMKK1 (human)): 91.2%; residual activity (CDK1 CCNA2 (human)): 91.6%; residual activity (CDK5 CDK5R1 p25 (human)): 93.2%; residual activity (CHEK2 (human)): 67%; residual activity (CLK4 (human)): 87.8%; residual activity (CSNK1G2 (human)): 106%; residual activity (DAPK2 (human)): 78.7%; residual activity (DSTYK (human)): 112%; residual activity (DYRK4 (human)): 92.7%; residual activity (EPHA1 (human)): 83%; residual activity (FGFR1 (human)): 75.7%; residual activity (FGFR4 (human)): 92.9%; residual activity (FGR (human)): 21.2%; residual activity (FLT3 (human)): 46.6%; residual activity (FRK (human)): 27.5%; residual activity (GRK5 (human)): 98.8%; residual activity (GSK3A (human)): 91.4%; residual activity (HIPK3 (human)): 95.2%; residual activity (LRRK2 (human)): 94.4%; residual activity (MAPK14 (human)): 80.2%; residual activity (MAPK3 (human)): 106%; residual activity (MAPKAPK3 (human)): 102%; residual activity (MARK1 (human)): 91.4%; residual activity (MELK (human)): 98.5%; residual activity (MYLK2 (human)): 26.8%; residual activity (NEK1 (human)): 96.7%; residual activity (NTRK2 (human)): 102%; residual activity (PAK2 (human)): 91.2%; residual activity (PASK (human)): 93.6%; residual activity (PKN2 (human)): 109%; residual activity (PNCK (human)): 93.2%; residual activity (PRKACA (human)): 91.8%; residual activity (PRKCE (human)): 99.7%; residual activity (PRKCH (human)): 95.1%; residual activity (PRKCI (human)): 99.9%; residual activity (PRKX (human)): 100%; residual activity (RPS6KA2 KD1 KD2 (human)): 91.1%; residual activity (SGK2 (human)): 97.3%; residual activity (TAOK3 (human)): 87.9%; residual activity (WNK3 (human)): 101%

Question: `O=C1Cc2c([nH]c3ccc([N+](=O)[O-])cc23)-c2ccccc2N1` was tested. Which residual activity (ALK (human)) did it give?
Answer: 94.2%

Question: And the residual activity (CAMK4 (human))?
Answer: 89.2%

Question: And the residual activity (CAMKK1 (human))?
Answer: 91.7%

Question: What about the residual activity (CDK1 CCNA2 (human)) of the same molecule?
Answer: 54.5%

Question: And the residual activity (CDK5 CDK5R1 p25 (human))?
Answer: 10.5%

Question: And the residual activity (CHEK2 (human))?
Answer: 7.9%

Question: And the residual activity (CLK4 (human))?
Answer: 86.4%

Question: And the residual activity (CSNK1G2 (human))?
Answer: 91.7%

Question: And the residual activity (DAPK2 (human))?
Answer: 97.2%

Question: What about the residual activity (DSTYK (human)) of the same molecule?
Answer: 90%

Question: And the residual activity (DYRK4 (human))?
Answer: 106%

Question: What about the residual activity (EPHA1 (human)) of the same molecule?
Answer: 94.8%

Question: And the residual activity (FGFR1 (human))?
Answer: 88.6%

Question: What about the residual activity (FGFR4 (human)) of the same molecule?
Answer: 90.6%

Question: And the residual activity (FGR (human))?
Answer: 50.3%

Question: And the residual activity (FLT3 (human))?
Answer: 19.7%

Question: What about the residual activity (FRK (human)) of the same molecule?
Answer: 97.2%

Question: What about the residual activity (GRK5 (human)) of the same molecule?
Answer: 107%

Question: And the residual activity (GSK3A (human))?
Answer: 0.971%

Question: What about the residual activity (HIPK3 (human)) of the same molecule?
Answer: 96.6%

Question: What about the residual activity (LRRK2 (human)) of the same molecule?
Answer: 96.5%

Question: And the residual activity (MAPK14 (human))?
Answer: 92.1%

Question: What about the residual activity (MAPK3 (human)) of the same molecule?
Answer: 93.5%

Question: And the residual activity (MAPKAPK3 (human))?
Answer: 97%

Question: And the residual activity (MARK1 (human))?
Answer: 62.5%

Question: And the residual activity (MELK (human))?
Answer: 71.7%

Question: And the residual activity (MYLK2 (human))?
Answer: 94.8%

Question: And the residual activity (NEK1 (human))?
Answer: 105%

Question: What about the residual activity (NTRK2 (human)) of the same molecule?
Answer: 86.1%

Question: And the residual activity (PAK2 (human))?
Answer: 41%

Question: What about the residual activity (PASK (human)) of the same molecule?
Answer: 86.9%

Question: What about the residual activity (PKN2 (human)) of the same molecule?
Answer: 74.5%

Question: And the residual activity (PNCK (human))?
Answer: 107%

Question: And the residual activity (PRKACA (human))?
Answer: 87.4%

Question: And the residual activity (PRKCE (human))?
Answer: 111%

Question: And the residual activity (PRKCH (human))?
Answer: 96.9%

Question: What about the residual activity (PRKCI (human)) of the same molecule?
Answer: 83.3%

Question: And the residual activity (PRKX (human))?
Answer: 74.5%

Question: What about the residual activity (RPS6KA2 KD1 KD2 (human)) of the same molecule?
Answer: 62%

Question: What about the residual activity (SGK2 (human)) of the same molecule?
Answer: 111%

Question: What about the residual activity (TAOK3 (human)) of the same molecule?
Answer: 76.7%

Question: What about the residual activity (WNK3 (human)) of the same molecule?
Answer: 99.7%
